# Results taken from patent publication US4461891A, “2-β-D-Ribofuranosylthiazole-4-carboxamidine compounds” (Brigham Young University, priority 1983, dated 1984).
# Tests used:
# [1] = tested on: MOLT-4; test: T-cell test with 2'-deoxyguanosine, MOLT-4; assay type: cell-based; conditions: with 2'-deoxyguanosine (10 micromoles), read-out: ED50 (toxic for T-lymphoblasts)
# [2] = tested on: T-cells; test: T-cell test: selective cytotoxicity in the presence of 2'-deoxyguanosine; assay type: cell-based
# [3] = tested on: CEM T-lymphoblasts; test: T-cell test with 2'-deoxyguanosine, CEM; assay type: cell-based; conditions: with 2'-deoxyguanosine (10 micromoles), read-out: ED50 (toxic for T-lymphoblasts)
# [4] = tested on: HSB; test: T-cell test with 2'-deoxyguanosine, HSB; assay type: cell-based; conditions: with 2'-deoxyguanosine (10 micromoles), read-out: ED50 (toxic for T-lymphoblasts)
# [5] = tested on: purine nucleoside phosphorylase; test: purine nucleoside phosphorylase (PNP-4) test: formation of [14C]-hypoxanthine from [14C]-inosine; assay type: biochemical; conditions: human erythrocytes as the source of enzyme; [14C]-inosine substrate
# From the text: In particular, the compound, in a standard protocol, patterned after that reported in Biomedicine, 33, 39-41(1980), has been shown typically to inhibit the formation of [^14 C]-hypoxanthine from [^14 C]-inosine using human erythrocytes as the source of enzyme. […] Since T-cells play a central role in immune response, use of the compounds of the invention is contemplated for the immunoregulation of autoimmune disease Such as rheumatoid arthritis, systemic lupus erythematosus, and inflammatory bowel disease. The present invention in another preferred aspect therefore relates to compositions containing at least one compound of the invention in treating disease such as autoimmune disease characterized by abnormal immune response in warm blooded animals. According to this aspect of the invention, the properties of 2-β-D-ribofuranosylthiazole-4-carboxamidines are utilized by administering to a warm blooded animal an effective amount of a pharmaceutical composition containing as the active ingredient at least about 0.1 percent by weight, based on the total weight of the composition of at least one such compound of the invention.
structure (smiles),measurement,setting,value
"Cl.N=C(N)c1csc([C@@H]2O[C@H](CO)[C@@H](O)[C@H]2O)n1 [Example 1, 2-β-D-Ribofuranosylthiazole-4-Carboxamidine, hydrochloride]",IC50,[1],~27 µM
same,selective cytotoxicity for T-cells,[2],selectively cytotoxic for T-cells
same,IC50,[3],~77 µM
same,IC50,[4],~7 µM
same,concentration at which total inhibition was achieved,[5],less than 300 micromoles
